Measurements from the supplement of paper PMC11208160.

Assay: recombinant UMI read abundance after kanamycin selection (control-corrected) (log10(CPM+1)); higher = more efficient recombination; extreme values may be limits of the assay; sequences stand for … in AGTGCAGAGAAAATCGGCCAGTTTTCTCTGCCTGCAGTCCGCATGCCGTGGGACCCCTTGGGTTCTAACCTGTTGCCTAGATTTATGCAGCGGACTGCCTTTCTCCCAAAGTGATAAACCGG…AGGTTGGTTTCACT; site = the 11-nt donor
Summary of the method: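 Under IPTG (0.07 mM) plus kanamycin, or without selection, Escherichia coli carrying a UMI-tagged donor and donor-binding-loop pair library and a target plasmid for the IS621 bridge recombinase were plated in two replicates. Recombinant UMIs were PCR-amplified across the donor–target junction and sequenced. Counts were converted to CPM, averaged over replicates, scaled by control-derived factors and reported as log10(CPM+1).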
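Further: IS621 bridge recombinase in Escherichia coli cells against a fixed T5 target plasmid.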

Sequence	recombinant UMI read abundance (log10)
GGCCACACATGGACCGGTTTTCCCGGTAATCCGTATTTGTT (site GGCCACCCTAA)	0.035
CTACTAACATGGACCGGTTTTCCCGGTAATCCGTATTTGGA (site CTACTAACTTT)	1.96
CAAGTCACATGGACCGGTTTTCCCGGTAATCCGTATTTGGG (site CAAGCCACTCC)	0.239
CTCCAACCATGGACCGGTTTTCCCGGTAATCCGTATTTGCC (site CTCCAACCTGG)	0
AGCCAGACATGGACCGGTTTTCCCGGTAATCCGTATTTGCA (site AGCCAGACTTG)	2.18
CGAGTGTCATGGACCGGTTTTCCCGGTAATCCGTATTTGAC (site CTAGTATCTGT)	0.545
AATGTGTCATGGACCGGTTTTCCCGGTAATCCGTATTTGAC (site AATGTGTCTCT)	0.028
GTTATAGCATGGACCGGTTTTCCCGGTAATCCGTATTTGTC (site GTTATAGCTGA)	2.53
CTAGCTGCATGGACCGGTTTTCCCGGTAATCCGTATTTGTG (site GTAGCTGCTCA)	0.0102
AACCATCCATGGACCGGTTTTCCCGGTAATCCGTATTTGCC (site AACCATCCTGG)	0.00555
CAATTCACATGGACCGGTTTTCCCGGTAATCCGTATTTGCT (site CAATTCTCTAG)	0
CTGCCAACATGGACCGGTTTTCCCGGTAATCCGTATTTGAA (site CTGCCAACTTT)	0.912
GGAGTGCCATGGACCGGTTTTCCCGGTAATCCGTATTTGGT (site GGAGTGCCTAC)	0.0291
CTTATCTCATGGACCGGTTTTCCCGGTAATCCGTATTTGTA (site CTTATCTCTTA)	2.27
TCCTAGGCATGGACCGGTTTTCCCGGTAATCCGTATTTGGT (site TTCTAGGCTAC)	0.0363
GTGCATGCATGGACCGGTTTTCCCGGTAATCCGTATTTGGG (site GTGCATGCTAC)	0.00412
AGCCTAGCATGGACCGGTTTTCCCGGTAATCCGTATTTGTT (site AGTCTAGCTAA)	0.0113
GTCATAGCATGGACCGGTTTTCCCGGTAATCCGTATTTGTT (site GTCATAGCTAA)	2.1
TAGGATACATGGACCGGTTTTCCCGGTAATCCGTATTTGCA (site TAGGATACTTG)	3.06

Sequence	recombinant UMI read abundance (log10)
TGCTAGGCATGGACCGGTTTTCCCGGTAATCCGTATTTGCT (site TGCTAGGCTAG)	0.521
CGTTACCCATGGACCGGTTTTCCCGGTAATCCGTATTTGCG (site CGTTACCCTCG)	0.477
CTCCCTACATGGACCGGTTTTCCCGGTAATCCGTATTTGGG (site CTCCCTACTCC)	0.0177
ACAGTATCATGGACCGGTTTTCCCGGTAATCCGTATTTGCA (site ACAGTAACTAG)	0
GATACTGCATGGACCGGTTTTCCCGGTAATCCGTATTTGCC (site GGTACTGCTGG)	1.73
CGTGTAACATGGACCGGTTTTCCCGGTAATCCGTATTTGTT (site CGTGAAACTAA)	0.00395
GATAAACCATGGACCGGTTTTCCCGGTAATCCGTATTTGGT (site GAGAAACCTAC)	0
ACAGTATCATGGACCGGTTTTCCCGGTAATCCGTATTTGCA (site AGAGTATCTTG)	2.46
GAATGAGCATGGACCGGTTTTCCCGGTAATCCGTATTTGGA (site GAATGAGCTTC)	1.28
CGCTCCTCATGGACCGGTTTTCCCGGTAATCCGTATTTGCT (site CGATCATCTAG)	0
ATCCTTTCATGGACCGGTTTTCCCGGTAATCCGTATTTGAC (site ACCCTTTCTGT)	0
TACTGGTCATGGACCGGTTTTCCCGGTAATCCGTATTTGAC (site TACTGGTCTGT)	1.07
CTTGACTCATGGACCGGTTTTCCCGGTAATCCGTATTTGTA (site CTTGACTCTTA)	2.26
CAAGTCACATGGACCGGTTTTCCCGGTAATCCGTATTTGGG (site CAAGTCACTCG)	0
CCTAAAGCATGGACCGGTTTTCCCGGTAATCCGTATTTGGT (site CCTAAAGCTAC)	0
CAAGCGCCATGGACCGGTTTTCCCGGTAATCCGTATTTGTC (site CAAGCGCCTGA)	2.51
TGGTCATCATGGACCGGTTTTCCCGGTAATCCGTATTTGAG (site TGGTCATCTCT)	0.0288
GACGCTACATGGACCGGTTTTCCCGGTAATCCGTATTTGCA (site GACGCTACTTG)	1.36
ACAGTATCATGGACCGGTTTTCCCGGTAATCCGTATTTGCA (site ACGGCATCTTG)	0

Sequence	recombinant UMI read abundance (log10)
TGTTCTCCATGGACCGGTTTTCCCGGTAATCCGTATTTGTA (site TGTTCTCCTTA)	0.679
ATCTAGGCATGGACCGGTTTTCCCGGTAATCCGTATTTGGC (site ATGTAGGCTGC)	0
ATTACTTCATGGACCGGTTTTCCCGGTAATCCGTATTTGGG (site ATTACTTCTCC)	0.434
CACTCGACATGGACCGGTTTTCCCGGTAATCCGTATTTGGG (site CAATCGACTCC)	0.0326
CGCCGTACATGGACCGGTTTTCCCGGTAATCCGTATTTGCA (site CGCCGTACTAG)	0.00535
TGTCAAACATGGACCGGTTTTCCCGGTAATCCGTATTTGGG (site TGTCAAACTCC)	0.00984
TCCACTGCATGGACCGGTTTTCCCGGTAATCCGTATTTGCG (site TCCACGGCTCG)	0.00658
TGTACACCATGGACCGGTTTTCCCGGTAATCCGTATTTGTC (site TGTACACCTGG)	0
TATGCGGCATGGACCGGTTTTCCCGGTAATCCGTATTTGAT (site TATGCGGCTAT)	0.581
CGATCATCATGGACCGGTTTTCCCGGTAATCCGTATTTGAT (site CGATCATCTAA)	0
TATTTCGCATGGACCGGTTTTCCCGGTAATCCGTATTTGTG (site TATTTCGCTCA)	0.00881
ATTACGGCATGGACCGGTTTTCCCGGTAATCCGTATTTGGA (site ATTACGGCTTC)	0.269
GAATATGCATGGACCGGTTTTCCCGGTAATCCGTATTTGAA (site GAATATGCTTT)	2.09
CATGTCACATGGACCGGTTTTCCCGGTAATCCGTATTTGGG (site CAGGTCACTCC)	0.0142
CTACCTACATGGACCGGTTTTCCCGGTAATCCGTATTTGAG (site CTACCTACTCT)	1.04
CCGTAATCATGGACCGGTTTTCCCGGTAATCCGTATTTGCG (site CCGTAATCTCG)	1.7
CGGCATGCATGGACCGGTTTTCCCGGTAATCCGTATTTGTT (site CGGCATGCTAA)	2.31
AGGACTACATGGACCGGTTTTCCCGGTAATCCGTATTTGCA (site AGGAAGACTTG)	0
TCCCATTCATGGACCGGTTTTCCCGGTAATCCGTATTTGCC (site TCCGATTCTGG)	0
